Reference: patent US20230285570A1, “THERAPEUTICALLY USEFUL CURE-PRO MOLECULES FOR E3 LIGASE MEDIATED DEGRADATION OF PROTEINS, AND METHODS OF MAKING AND USING THEM” (CORNELL UNIVERSITY, priority 2020, published 2023)
Entries after “also recorded” stand apart in the source; their conditions may differ.

Tests used:
SLC19A1 = assay: RT-PCR of c-MYC downstream target gene SLC19A1 in HeLa cells; format: cell-based, Human; details: single compound, HeLa, 10 μM, 24 h
Protocol: The suppression of the expression of the downstream c-MYC target, SLC19A1, was measured by RT-PCR using Power SYBR® Green Cells-to-Ct™ Kit (Life Technologies). Adherent cells were plated on 96 well plates at 5,000 cells per well were treated for 24 h with monomer compounds and compounds capable of reversible interactions (1 nM-100 μM). Cells were subsequently washed in ice-cold PBS processed according to the manufacturer's instructions. Quantitative real-time PCR was performed using a ViiA™ 7 Real-time PCR System (Applied Biosystems, Foster City, Calif., USA). GAPDH and ACTB served as internal controls.
HeLa cells (1×10^4) were treated for 24 hours in 96 well plates with the compounds solubilized in DMSO. Compounds were added at 10 μM each and RNA expression measured by the Cells-to Ct method described above (Thermofisher).

c-MYC [1] = molecular target: T1, c-MYC (Homo sapiens, UniProt P01106); assay: Summary of C-MYC degradation by CURE-PRO pairs, estimated from Western Blot or WES; format: cell-based; design: endogenous in cells; host or cells: HT29
T1 sequence (P01106 whole entry): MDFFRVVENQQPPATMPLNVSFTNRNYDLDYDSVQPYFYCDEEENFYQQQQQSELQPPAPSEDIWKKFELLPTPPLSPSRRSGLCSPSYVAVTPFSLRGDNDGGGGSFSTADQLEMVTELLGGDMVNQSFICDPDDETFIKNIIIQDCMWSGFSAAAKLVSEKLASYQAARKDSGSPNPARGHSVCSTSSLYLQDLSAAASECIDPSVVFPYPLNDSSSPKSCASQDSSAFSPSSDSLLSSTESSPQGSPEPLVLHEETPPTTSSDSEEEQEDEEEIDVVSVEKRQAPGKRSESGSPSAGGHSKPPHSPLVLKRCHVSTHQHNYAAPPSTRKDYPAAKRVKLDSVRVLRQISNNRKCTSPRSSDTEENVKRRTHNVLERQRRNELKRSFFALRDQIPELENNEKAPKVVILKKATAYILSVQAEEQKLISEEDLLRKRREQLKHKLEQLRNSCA
Method in brief: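 Namalwa, Ramos, HeLa, MCF7, HT29 or HCT116 cells treated 24 h with compounds in DMSO; RIPA lysates analysed by Western blot (ECL) or capillary WES immunodetection. Check mark denotes 30% to 70% or higher protein degradation.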

c-MYC [2] = molecular target: T1, c-MYC; assay: CURE-PRO-mediated c-MYC degradation in HCT1116 cells, Western blot or WES; format: cell-based; design: endogenous in cells; host or cells: HT29
Protocol: (§1) Namalwa, Ramosm HeLa, MCF7, or HT29 HCT116 cells (2.5-3×10^6) were treated for 24 hours with the indicated compounds solubilized in DMSO. The cells were washed in ice-cold PBS and were then lysed in RIPA lysis buffer (150 mM NaCl, 5 mM EDTA, 1% NP-40, 0.5% sodium deoxycholate, 0.1% SDS, 50 mM Tris, pH 8.0.) with Roche protease inhibitor complete cocktail and phosphatase inhibitors (10 mM sodium fluoride, 10 mM sodium pyrophosphate, 1 mM sodium orthovanadate and 20 mM β-glycerophosphate). The total protein concentrations were determined by Bradford Protein Assay (Pierce) and 10-20 μg of protein was loaded onto 4-15% Tris-Glycine gradient gels (Biorad). After standard gel electrophoresis, the separated proteins were transferred to PVDF membrane by wet transfer. The immunoblots were then blocked for 1 hour in 5% skim milk in TBST or 5% BSA in TBST, according to manufacturer's instructions, before an overnight incubation at 4° C. with indicated antibodies and membranes. Membranes were then incubated with the appropriate horseradish peroxidase-conjugated secondary antibodies (1:5,000 dilution) for 1 h at room temperature and the bands were visualized using the Clarity Max Western ECL Substrate (Biorad) and the ChemiDoc Imaging System (Biorad). Signal was detected with ECL Western Blotting Substrate (Pierce) and X-ray film processed with a Konica SRX-101 X-ray film processor or captured by Bio-Rad's Chemidoc Imaging system.
WES Simple analysis was performed on WES system (ProteinSimple-Biotechne) according to the manufacturer's instructions. Total protein concentrations of cell lysates were determined by the Pierce BCA kit (Thermo Fisher). 3 μL of 0.3 μg/μL of the protein lysate was loaded onto a 12- to 230-kDa WES assay plate (ProteinSimple) where 300 nL sample was withdrawn through a capillary, subjected to electrophoretic separation of proteins by size, and followed by the simultaneous, HRP-based detection of proteins using the Anti-Rabbit Detection Module (Proteinsimple: #DM-001). The electropherograms were checked then the automatic peak detection was manually corrected if it was required.
HCT1116 cells (2.5×10^6) were treated for 24 h with the compounds solubilized in DMSO. Compounds were added at 10 nM-10 μM each. Standardized protein samples were electrophoresed and imaged as described in the immunoblotting or WES (Proteinsimple) sections above. c-MYC monomers, MYC-N20 (FIG. 100, a 10074-G5 derivative comprising diol linkers), and MYC-N10 (FIG. 101), MYC-N6 (FIG. 102), and MYC-N9 (FIG. 103) (10058-F4 derivatives comprising diol linkers), and MDM2 ligands, 8310 and 8312 (Nutlin 3a derivatives comprising boronic acid linkers) were combined in a 1:1 ratio.
HCT1116 cells (2.5×10^6) were treated for 24 h with the compounds solubilized in DMSO. Compounds were added at 1 μM-10 μM each.

Aiolos and Ikaros [3] = assay: Aiolos and Ikaros expression in Ramos cells, Western blot; format: cell-based; details: monomer alone, 100 nM-10 μM, 24 h
Protocol: as §1
(§2) Namalwa (FIG. 78) or Ramos (FIG. 79) cells (5×10^6) were treated for 24 h with the compounds solubilized in DMSO. Compounds were added at 100 nM-10 μM each. Standardized protein samples were electrophoresed and imaged as described in the immunoblotting section above. FIGS. 78 and 79 depict the effects of the E3 ubiquitin ligase CURE-PRO monomer ligands (100 nM-10 μM, 24 h) targeting Cereblon on the expression of Aiolos and Ikaros, two downstream proteins that are known to be ubiquitinated and degraded after IMiDs bind to CRBN.

Aiolos and Ikaros [4] = assay: Aiolos and Ikaros expression in Namalwa cells, Western blot; format: cell-based; details: monomer alone, 100 nM-10 μM, 24 h
Protocol: as §1, §2

c-MYC degradation (c-MYC [2]; 1:1 with MDM2 ligand 8313, HCT1116, 24 h, 1 μM-10 μM each)	c-MYC degradation (c-MYC [2]; monomer dosed alone, HCT1116, 24 h)	Structure (SMILES)	suppression of SLC19A1 expression (SLC19A1)	Degradation of C-MYC, combination with CRBN ligand 8047 (c-MYC [1]; Table 7, aryl-boronic acid MYC ligand + 8047)	Degradation of C-MYC, combination with MDM2 ligand 8314 (c-MYC [1]; Table 8, aryl-boronic acid MYC ligand + 8314)	c-MYC degradation (c-MYC [2]; 1:1 with MDM2 ligand 8314, HCT1116, 24 h, 1 μM-10 μM each)	expression of Aiolos and Ikaros (Aiolos and Ikaros [3])	expression of Aiolos and Ikaros (Aiolos and Ikaros [4])
		Cc1sc2c(c1C)C(c1ccc(Cl)cc1)=N[C@@H](CC(=O)Nc1ccc(OCCOCCOCCOCCNc3cccc4c3C(=O)N(C3CCC(=O)NC3=O)C4=O)cc1)c1nnc(C)n1-2 (stereo partly drawn) [ARV-825, reference compound]	Complete suppression; also recorded: completely suppressed					
had no effect	No loss of c-MYC protein was noted	CCc1ccc(/C=C2\SC(=O)N(CCOCCNC(=O)c3cccc(B(O)O)c3)C2=O)cc1 [MYC-E4]		√ (A black check mark indicates efficacy of 30% to 70% or higher protein degradation)	√ (A black check mark indicates efficacy of 30% to 70% or higher protein degradation)	caused degradation of c-MYC protein at 10 μM; also recorded: Degradation was noted		
		Nc1cccc2c1C(=O)N(C1CCC(=O)NC1=O)C2=O (stereo not drawn) [Pomalidomide, pomalidomide, reference compound]	no suppression				caused greater loss of Aiolos and Ikaros protein than the CURE-PRO derivatives at equimolar concentrations	caused greater loss of Aiolos and Ikaros protein than the CURE-PRO derivatives at equimolar concentrations
